# Data taken from PubChem BioAssay (NCI).
#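 In this assay, cells in 96-well plates receive the compound at five concentrations for 48 hours. Endpoints are linearly interpolated between the surrounding concentrations. At the GI50, growth is halved. Definition used: TGI = concentration required for complete inhibition of growth.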
# System: T-47D breast
# Assay: inhibition of tumour cell growth, NCI panel, 48 h
SMILES,GI50 [µM],TGI [µM]
COc1ccc2[nH]c3c4[nH]c5ccc(OC)cc5c4c4c(c3c2c1)C(=O)NC4=O,> 25,> 25
CCOC(=O)c1c(N2CCOCC2)[nH]c(=O)c(C(c2c(Cl)cccc2Cl)c2c(O)c(C(=O)OCC)c(N3CCOCC3)[nH]c2=O)c1O,–,13.2
CC/C=C\C[C@H](O)C/C=C1/C(=O)C=C[C@@H]1C/C=C\CCCC(=O)OC,2.52,12.8

# System: HCC-2998 colon
# Assay: inhibition of tumour cell growth, NCI panel, 48 h
SMILES,GI50 [µM],TGI [µM]
Nc1nc(Nc2cccnc2)sc1C(=O)c1ccccc1F,0.309,0.972
COc1ccc2[nH]c3c4[nH]c5ccc(OC)cc5c4c4c(c3c2c1)C(=O)NC4=O,> 25,> 25
CCOC(=O)c1c(N2CCOCC2)[nH]c(=O)c(C(c2c(Cl)cccc2Cl)c2c(O)c(C(=O)OCC)c(N3CCOCC3)[nH]c2=O)c1O,–,34
CC/C=C\C[C@H](O)C/C=C1/C(=O)C=C[C@@H]1C/C=C\CCCC(=O)OC,2.09,3.68

# System: KM12 colon
# Assay: inhibition of tumour cell growth, NCI panel, 48 h
SMILES,GI50 [µM],TGI [µM]
Nc1nc(Nc2cccnc2)sc1C(=O)c1ccccc1F,3.06,32.5
COc1ccc2[nH]c3c4[nH]c5ccc(OC)cc5c4c4c(c3c2c1)C(=O)NC4=O,1.76,> 25
CCOC(=O)c1c(N2CCOCC2)[nH]c(=O)c(C(c2c(Cl)cccc2Cl)c2c(O)c(C(=O)OCC)c(N3CCOCC3)[nH]c2=O)c1O,–,33.2
CC/C=C\C[C@H](O)C/C=C1/C(=O)C=C[C@@H]1C/C=C\CCCC(=O)OC,1.38,5.02

# System: SK-MEL-28 melanoma
# Assay: inhibition of tumour cell growth, NCI panel, 48 h
SMILES,GI50 [µM],TGI [µM]
Nc1nc(Nc2cccnc2)sc1C(=O)c1ccccc1F,4.13,22.3
COc1ccc2[nH]c3c4[nH]c5ccc(OC)cc5c4c4c(c3c2c1)C(=O)NC4=O,> 25,> 25
CCOC(=O)c1c(N2CCOCC2)[nH]c(=O)c(C(c2c(Cl)cccc2Cl)c2c(O)c(C(=O)OCC)c(N3CCOCC3)[nH]c2=O)c1O,–,4.19
CC/C=C\C[C@H](O)C/C=C1/C(=O)C=C[C@@H]1C/C=C\CCCC(=O)OC,1.81,4.37

# System: SR leukemia
# Assay: inhibition of tumour cell growth, NCI panel, 48 h
SMILES,GI50 [µM],TGI [µM]
Nc1nc(Nc2cccnc2)sc1C(=O)c1ccccc1F,0.709,–
COc1ccc2[nH]c3c4[nH]c5ccc(OC)cc5c4c4c(c3c2c1)C(=O)NC4=O,1.29,> 25
CCOC(=O)c1c(N2CCOCC2)[nH]c(=O)c(C(c2c(Cl)cccc2Cl)c2c(O)c(C(=O)OCC)c(N3CCOCC3)[nH]c2=O)c1O,–,15.9
CC/C=C\C[C@H](O)C/C=C1/C(=O)C=C[C@@H]1C/C=C\CCCC(=O)OC,0.403,6.18

# System: CCRF-CEM leukemia
# Assay: inhibition of tumour cell growth, NCI panel, 48 h
SMILES,GI50 [µM],TGI [µM]
Nc1nc(Nc2cccnc2)sc1C(=O)c1ccccc1F,2.19,> 21.9
COc1ccc2[nH]c3c4[nH]c5ccc(OC)cc5c4c4c(c3c2c1)C(=O)NC4=O,0.757,> 25
CCOC(=O)c1c(N2CCOCC2)[nH]c(=O)c(C(c2c(Cl)cccc2Cl)c2c(O)c(C(=O)OCC)c(N3CCOCC3)[nH]c2=O)c1O,–,3.56
CC/C=C\C[C@H](O)C/C=C1/C(=O)C=C[C@@H]1C/C=C\CCCC(=O)OC,0.368,11.4

# System: SN12C renal
# Assay: inhibition of tumour cell growth, NCI panel, 48 h
SMILES,GI50 [µM],TGI [µM]
Nc1nc(Nc2cccnc2)sc1C(=O)c1ccccc1F,3.02,> 100
COc1ccc2[nH]c3c4[nH]c5ccc(OC)cc5c4c4c(c3c2c1)C(=O)NC4=O,1.19,> 25
CCOC(=O)c1c(N2CCOCC2)[nH]c(=O)c(C(c2c(Cl)cccc2Cl)c2c(O)c(C(=O)OCC)c(N3CCOCC3)[nH]c2=O)c1O,–,11.4
CC/C=C\C[C@H](O)C/C=C1/C(=O)C=C[C@@H]1C/C=C\CCCC(=O)OC,2.55,10.2

# System: HCT-116 colon
# Assay: inhibition of tumour cell growth, NCI panel, 48 h
SMILES,GI50 [µM],TGI [µM]
Nc1nc(Nc2cccnc2)sc1C(=O)c1ccccc1F,2.51,> 100
COc1ccc2[nH]c3c4[nH]c5ccc(OC)cc5c4c4c(c3c2c1)C(=O)NC4=O,> 11,> 25
